According to patent publication US20100048594A1, “USE OF CYTOHESIN INHIBITORS FOR CHEMICALLY INDUCING LONGEVITY” (RHEINISCHE FRIEDRICH-WILHELMS UNIVERSITAT, priority 2006, published 2010):

Tests used:
[1] = tested on: IGFBP1 (insulin-like growth factor binding protein); assay: Transcription of IGFBP1 in insulin-treated HepG2 liver cells (quantitative PCR); assay type: cell-based, human
Method: Human hepG2 cells (ECACC) were cultivated in EMEM medium (Cambrex) with the addition of 10% fetal calf serum. 10^5 cells were seeded in 2 ml medium in 6 well plates and were cultivated at 37° C. in a moist atmosphere with 5% CO2 for 1 to 3 days, before being used for experiments.
For human HepG2 cells (ECACC), serum was removed from the medium for 24 hours, the cells were incubated for an additional 12 hours with concentrations of 1.5625 μM, 3.125 μM, 6.25 μM, 12.5 μM, 25 μM or 50 μM of the compound according to formula (9) and with 10 nM insulin. Control cells received DMSO in a concentration corresponding to that of the treated cells.
Total RNA was isolated using the Absolutely RNA Kit (Stratagene), and the cDNA was produced by means of the reverse transcription of 2 μg RNA using the High Capacity cDNA Archive Kit (Applied Biosystems), according to the manufacturer's instructions. Quantitative PCR was performed in 10 μl batches in an iQ5 Cycler (BioRad) by means of the TaqMan Gene Expression Assay (Applied Biosystems) using gene-specific primer (Applied Biosystems), according to the manufacturer's instructions. The data were normalized to the β2-microglobulin expression.

[2] = tested on: Drosophila eukaryotic initiation factor 4E binding protein (d4EBP, Thor); assay: Transcription rate of insulin target gene d4EBP in insulin-treated Drosophila S2 cells (real-time PCR); assay type: cell-based; conditions: 100 μM compound, 10 μg/ml human insulin, insulin alone less than 35%
Method: Drosophila Schneider 2 (S2) cells were cultivated in Schneider's Medium (PAN company) with 10% heat-inactivated fetal calf serum (FCS). 2×10^6 cells were drawn into 35 mm vessels at 25° C. to 80% confluence, washed one time in phosphate buffered saline solution (1×PBS, Gibco), and transferred for twelve hours to Schneider's Medium, without FCS. The cells were then preincubated for two hours with 0.5% DMSO containing Schneider's Medium, without FCS, with or without the compound according to formula (9) or formula (25), with the final concentrations of the compounds according to formulas (9) and (25) being 1 μM, 10 μM and 100 μM. This was followed by a four-hour stimulation with 10 μg/ml human insulin (Sigma).
After washing the cells two times with PBS, total RNA was then isolated from the cells using the NucleoSpin RNA II Kit (Macherey & Nagel), according to the manufacturer's instructions. The first strain cDNA synthesis was performed with every 500 ng RNA, using the QuantiTect Reverse Transcription Kit (Qiagen), according to the manufacturer's instructions. […]
The activity of the insulin signaling pathway was determined from the transcription rate of the insulin target gene Drosophila eukaryotic initiation factor 4E binding protein (d4EBP, Thor). […]

[3] = tested on: 4E-BP; assay: Expression of insulin-repressed gene 4E-BP in fed Drosophila larvae (real-time PCR); assay type: in vivo; conditions: 10 mg compound per 1 g brewer's yeast, 3 days
Method: Three groups of 100 Drosophila larvae received 10 mg of the compound according to formula (9) mixed with 1 g autoclaved and pulverized brewer's yeast (Brewferm), while three control groups of 100 animals each received the uncut brewer's yeast. This food was administered on water-impregnated filters (Macherey-Nagel) for 3 days at 25° C.
In each case, more than 10 animals of the group were washed thoroughly with water, placed in lysate buffer (NucleoSpin RNA II kit, Macherey & Nagel), and homogenized for 1 minute at maximum speed (Ultra-Turrax T25basic). Total RNA was isolated using the NucleoSpin RNA II Kit (Macherey & Nagel, including DNase I-treatment on the column).
cDNA was produced from each 500 ng total RNA using the QuantiTect Reverse Transcription Kit (Qiagen), according to the manufacturer's instructions, including DNase I treatment. PCR was performed in batches with a total volume of 25 μl (iQ5 Real Time PCR Detection System, BioRad). The batches contained 1 μl of the cDNA batch, in each case 200 nM and 3′- and 5′-primer (Metabion) 12.5 μl 2×iQ5 SYBR Green Supermix (BioRad).
The PCR program that was used comprised 40 cycles with the following steps: 15 seconds denaturing at 95° C., 30 seconds annealing at 59° C. and 30 seconds extension at 72° C. Evaluation was carried out using the iQ5 Optical System software (Version 1.1.1442.OCR, BioRad). […]

Q: What does the source list for `COc1nc(-c2ccc3c(c2)OCO3)n(-c2ccc(NC(=O)CSc3ccccc3)cc2)n1` [Compound (9)]?
A: IGFBP1 expression relative to untreated cells ([1]; 12.5 μM compound, 10 nM insulin): nearly the value of the untreated cells; block of the insulin-dependent inhibition of the transcription of IGFBP1 ([1]; 12 hours with compound and 10 nM insulin): nearly completely block; transcription rate of d4EBP as % of that of the untreated control groups [2]: more than 85%; expression of insulin-repressed gene 4E-BP [3]: more than four times
